Target: T1, human ENT1 (Homo sapiens, UniProt Q99808)
T1 construct: JAR cells expressing ENT1 were purchased from ATCC; host or cells: JAR cells
T1 sequence (Q99808 1-456): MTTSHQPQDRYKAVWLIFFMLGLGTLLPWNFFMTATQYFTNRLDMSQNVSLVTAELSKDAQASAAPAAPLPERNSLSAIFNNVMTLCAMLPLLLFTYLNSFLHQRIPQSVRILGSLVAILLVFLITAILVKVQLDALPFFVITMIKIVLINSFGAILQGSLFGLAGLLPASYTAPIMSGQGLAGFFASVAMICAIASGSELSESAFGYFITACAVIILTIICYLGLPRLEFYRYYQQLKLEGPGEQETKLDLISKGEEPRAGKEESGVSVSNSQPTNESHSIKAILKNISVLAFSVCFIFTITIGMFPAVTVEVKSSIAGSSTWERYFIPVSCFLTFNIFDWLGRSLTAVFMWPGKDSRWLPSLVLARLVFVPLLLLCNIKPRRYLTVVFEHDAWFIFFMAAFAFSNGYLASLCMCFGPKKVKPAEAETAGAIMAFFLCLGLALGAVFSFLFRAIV
Assay: ENT1 binding assay (competition with Sahenta-DY647 on JAR cells)
Settings: competition with SAHENTA-DY647 binding; IC50 categorized; read-out: Binding Assay IC50
Protocol: Compounds of the present disclosure were assayed to show ability to bind to human ENT1. The assay is a competition between a compound of interest and Sahenta-DY647, an ENT1 inhibitor that emits fluorescence (Ex=630 nm, Em=670 nm). By measuring the fluorescence at the end of the assay, one can assess the binding potency of the compounds tested. The compounds of the present disclosure were tested and compared to known ENT inhibitors, dilazep and NBMPR:
JAR cells expressing ENT1 were purchased from ATCC® (HTB-144TM). Cells were cultured in RPMI 1640 medium (LONZA®, #BE12-702F/U1) supplemented with 10% FBS (GIBCO®, #10270-106), 10 mM Hepes (LONZA®, #BE17-737E), 1 mM Sodium Pyruvate (LONZA®, #BE13-115E), and 2% Penicillin/Streptomycin (LONZA®, #DE17-603E) at 37° C. and 5% CO2.
The assay was conducted with the following buffer on the day of the assay: HBSS (LONZA®, #LO-527F) supplemented with 10 mM Hepes (LONZA®, #BE17-737E) and 0.1% BSA (Miltenyi®, #130-091-376).
JAR cells were resuspended in the described buffer. The compounds of interest and Sahenta-DY647 were diluted 200× with the described buffer.
A total of 50,000 cells were pre-incubated for 30 min at 4° C. with the compounds of the present disclosure before adding the corresponding amount of Sahenta-DY647 (100 nM) to the minimal concentration at Bmax and incubating for an additional 30 min at 4° C. The total volume of the reaction was 100 μL (50 μL of cells, 25 μL of the compounds of the present disclosure, and 25 μL of Sahenta-DY647) in a U-bottom 96 well plate (Greiner®, #650-180). The plates were washed 2× by centrifugation (4 min, 400 rcf at 4° C.) in the same buffer. Cells were re-suspended in 70 μL of the buffer and 50 μL was transferred to a Black 384 Optiplate (PerkinElmer®, #6007279). Fluorescence (Ex=630 nm, Em=670 nm) was acquired on a Spectramax i3x (Molecular Devices®).
Dose-response data from the compounds were analyzed with Graphpad Prism 9.1.1@software, using nonlinear regression applied to a sigmoidal dose-response model and the following equation:
Y=Bottom+(Top-Bottom)/(1+10^((LogIC50−X)*HillSlope)), with a shared bottom and top between the test reagent and dipyridamole.
Data from multiple experiments were compiled by taking the average pIC50 value for the reagent in question±the standard deviation (s.d.) and expressing it as an average IC50 value in nM.
The inhibitory effect of the test compound was expressed as a percentage of the inhibition of SAHENTA-DY647 binding.

Structure (SMILES): C[C@H]1O[C@@H](n2c(NCCOc3ccccc3)nc3c(OCc4ccc(OC(F)F)cc4)ncnc32)[C@H](O)[C@@H]1O [Compound 7]
- IC50: 1 to 20 nM

Structure (SMILES): C[C@H]1O[C@@H](n2cnc3c(SCc4ccc5ccccc5n4)ncnc32)[C@H](O)[C@@H]1O [Compound 342]
- IC50: > 500 nM

Structure (SMILES): C[C@H]1O[C@@H](n2c(N[C@H]3CC[C@](C)(O)CC3)nc3c(OCc4ccc(C#N)cc4)ncnc32)[C@H](O)[C@@H]1O [Compound 132]
- IC50: 1 to 20 nM

Structure (SMILES): C[C@H]1O[C@@H](n2c(NCCCS(C)(=O)=O)nc3c(OCc4ccc(OC(F)F)cc4)ncnc32)[C@H](O)[C@@H]1O [Compound 62]
- IC50: 1 to 20 nM

Structure (SMILES): C[C@H]1O[C@@H](n2cnc3c(OCCc4ccc(C#N)cn4)ncnc32)[C@H](O)[C@@H]1O [Compound 402]
- IC50: > 500 nM

Structure (SMILES): CC(C)Nc1nc2c(N3CCc4ccccc4C3)ncnc2n1[C@@H]1O[C@H](C)[C@@H](O)[C@H]1O [Compound 212]
- IC50: 20 to 500 nM

Structure (SMILES): C[C@H]1O[C@@H](n2c(N[C@H]3C[C@@](C)(O)C3)nc3c(OCc4ccc(C#N)cc4)ncnc32)[C@H](O)[C@@H]1O [Compound 119]
- IC50: 20 to 500 nM

Structure (SMILES): C[C@H]1O[C@@H](n2cnc3c(OCc4ccc(-n5cccn5)cc4)ncnc32)[C@H](O)[C@@H]1O [Compound 328]
- IC50: > 500 nM

Structure (SMILES): C[C@H]1O[C@@H](n2cnc3c(C(=O)Nc4ccc([N+](=O)[O-])cc4)ncnc32)[C@H](O)[C@@H]1O [Compound 341]
- IC50: > 500 nM

Structure (SMILES): C[C@H]1O[C@@H](n2ccc3c(SCc4ccc([N+](=O)[O-])cc4)ncnc32)[C@H](O)[C@@H]1O [Compound 197]
- IC50: 20 to 500 nM

Structure (SMILES): C[C@H]1O[C@@H](n2cnc3c(OCc4ccc(F)c(F)c4F)ncnc32)[C@H](O)[C@@H]1O [Compound 238]
- IC50: > 500 nM

Structure (SMILES): C[C@H]1O[C@@H](n2cnc3c(OCCc4ccc(Cl)cc4)ncnc32)[C@H](O)[C@@H]1O [Compound 293]
- IC50: > 500 nM

Structure (SMILES): Cc1cccc(C)c1CNc1ncnc2c1ncn2[C@@H]1O[C@H](C)[C@@H](O)[C@H]1O [Compound 331]
- IC50: > 500 nM

Structure (SMILES): C[C@H]1O[C@@H](n2cnc3c(SCc4nc(-c5ccc(F)cc5)no4)ncnc32)[C@H](O)[C@@H]1O [Compound 395]
- IC50: > 500 nM

Structure (SMILES): COc1nc(OCc2ccc([N+](=O)[O-])cc2)c2ncn([C@@H]3O[C@H](C)[C@@H](O)[C@H]3O)c2n1 [Compound 283]
- IC50: > 500 nM

Structure (SMILES): Cc1nn(C)c(C)c1CNc1nc2c(OCc3ccc([N+](=O)[O-])cc3)ncnc2n1[C@H]1O[C@H](C)[C@@H](O)[C@H]1O [Compound 67]
- IC50: < 1 nM

Structure (SMILES): C[C@H]1O[C@@H](n2cnc3c(NCc4ccc(S(N)(=O)=O)cc4)ncnc32)[C@H](O)[C@@H]1O [Compound 334]
- IC50: > 500 nM

Structure (SMILES): O=[N+]([O-])c1ccc(COc2ncnc3c2nnn3[C@@H]2C[C@H](OCCO)[C@@H](O)[C@H]2O)cc1 [Compound 309]
- IC50: > 500 nM

Structure (SMILES): O=[N+]([O-])c1ccc(COc2ncnc3c2nc(NC2CCCC2)n3[C@@H]2O[C@H](COCCO)[C@@H](O)[C@H]2O)cc1 [Compound 135]
- IC50: 20 to 500 nM

Structure (SMILES): C[C@H]1O[C@@H](n2cnc3c(SCc4ccccc4S(N)(=O)=O)ncnc32)[C@H](O)[C@@H]1O [Compound 242]
- IC50: > 500 nM

Structure (SMILES): C[C@H]1O[C@@H](n2c(NCCN3CCCC3)nc3c(OCc4ccc([N+](=O)[O-])cc4)ncnc32)[C@H](O)[C@@H]1O [Compound 32]
- IC50: 20 to 500 nM

Structure (SMILES): C[C@H]1O[C@@H](n2cnc3c(OCCc4ccc(OCF)cc4)ncnc32)[C@H](O)[C@@H]1O [Compound 343]
- IC50: > 500 nM

Structure (SMILES): C[C@H]1O[C@@H](n2cnc3c(SCc4ncc(F)cc4F)ncnc32)[C@H](O)[C@@H]1O [Compound 337]
- IC50: > 500 nM

Structure (SMILES): C[C@H]1O[C@@H](n2c(NC3CCCC3)nc3c(OCc4ccc(C(F)(F)F)cc4)ncnc32)[C@H](O)[C@@H]1O [Compound 92]
- IC50: 1 to 20 nM

Structure (SMILES): O=[N+]([O-])c1ccc(COc2ncnc3c2ncn3[C@@H]2O[C@H](CCO)[C@@H](O)[C@H]2O)cc1 [Compound 229]
- IC50: > 500 nM

Structure (SMILES): C[C@H]1O[C@@H](n2cnc3c(OCCc4cc(F)c(Cl)c(F)c4)ncnc32)[C@H](O)[C@@H]1O [Compound 268]
- IC50: > 500 nM
